Source: US20250257034A1, “INDOLE DERIVATIVES AS SEROTONERGIC AGENTS USEFUL FOR THE TREATMENT OF DISORDERS RELATED THERETO” (priority 2023, published 2025)
“And” between values parts separate entries of the source, which are not always exact repeats. Identical values can stand only once.

Key:
Assay type in all cases: in vitro ADME
[1] = Human liver microsomes stability; settings: for CLint (μL/min/mg protein) / t1/2: 2 μM compound
Method: (§1) The objective of this study was to estimate in vitro metabolic stability of exemplary compounds of Formula (I) or a pharmaceutically acceptable salt, solvate, and/or prodrug thereof in pooled human, male rat, and male mouse liver microsomes. The concentrations of compounds in reaction systems were evaluated by LC-MS/MS for estimating the stability in pooled human, male rat, and male mouse liver microsomes. The in vitro intrinsic clearances of test compounds were determined as well.
(§2) A master solution in the “Incubation Plate” containing phosphate buffer, ultra-pure H2O, MgCl2 solution and liver microsomes was made according to Table 33. The mixture was pre-warmed at 37° C. water bath for 5 minutes.
(§3) 40 μL of 10 mM nicotinamide adenine dinucleotide phosphate (NADPH) solution was added to each well. The final concentration of NADPH was 1 mM. The negative control samples were prepared by replacing NADPH with 40 μL of ultra-pure H2O. Samples were prepared in duplicate. Negative controls were prepared in singlet.
(§4) The reaction was started with the addition of 4 μL of 200 μM exemplary test compounds of the disclosure or control compounds to each master solution to get the final concentration of 2 μM. This study was performed in duplicate.
(§5) Aliquots of 50 μL were taken from the reaction solution at 0, 15, 30, 45, and 60 minutes. The reaction solutions were stopped by the addition of 4 volumes of cold methanol with IS (100 nM alprazolam, 200 nM imipramine, 200 nM labet alol and 2 μM ketoprofen). Samples were centrifuged at 3,220 g for 40 minutes. Aliquot of 90 μL of the supernatant was mixed with 90 μL of ultra-pure H2O and then was used for LC-MS/MS analysis.
(§6) LC/MS analysis was performed for all samples from this study using a Shimadzu liquid chromatograph separation system equipped with degasser DGU-20A5R; solvent delivery unit LC-30AD; system controller SIL-30AC; column oven CTO-30A; CTC Analytics HTC PAL System. Mass spectrometric analysis was performed using a Triple Quad™ 5500 instrument.
(§7) All calculations were carried out using Microsoft Excel. Peak area ratios of test compound to internal standard (listed in the below table) were determined from extracted ion chromatograms.
(§8) All calculations were carried out using Microsoft Excel. Peak areas were determined from extracted ion chromatograms. The slope value, k, was determined by linear regression of the natural logarithm of the remaining percentage of the parent drug vs. incubation time curve.
(§9) The in vitro half-life (in vitro t1/2) was determined from the slope value:
(§10) Conversion of the in vitro t1/2(min) into the in vitro intrinsic clearance (in vitro CLint, in μL/min/mg proteins) was done using the following equation (mean of duplicate determinations): […]
(§11) A master solution in the “Incubation Plate” containing phosphate buffer, ultra-pure H2O, MgCl2 solution and liver microsomes was made according to Table 63. The mixture was pre-warmed at 37° C. water bath for 5 minutes.
(§12) 40 μL of 10 mM NADPH solution was added to each well. The final concentration of NADPH was 1 mM. The negative control samples were prepared by replacing NADPH with 40 μL of ultra-pure H2O. Samples were prepared in duplicate. Negative controls were prepared in singlet.
(§13) Conversion of the in vitro t1/2(min) into the in vitro intrinsic clearance (in vitro C Lt, in μL/min/mg proteins) was done using the following equation (mean of duplicate determinations): […]

[2] = Rat liver microsomes stability; settings: for CLint (μL/min/mg protein) / t1/2 / half-life at 2 μM / microsomal CLint at 2 μM: 2 μM compound; for half-life at 2 μM / microsomal CLint at 2 μM: male, rat; for microsomal CLint at 2 μM: read-out: CLint (μL/min/mg protein)
Method: as §1, §2, §3, §4, §5, §6, §7, §8, §9, §10, §11, §12, §13

[3] = Mouse liver microsomes stability; settings: for microsomal CLint at 2 μM: mouse, read-out: CLint (μL/min/mg protein)
Method: as §1, §2, §3, §4, §5, §6, §7, §8, §9, §10, §11, §12, §13

[4] = human liver microsomes, 0.5 mg/mL
[5] = human liver microsomes, With Cofactors, 0 min
[6] = human liver microsomes, With Cofactors, 30 min
[7] = human liver microsomes, With Cofactors, 60 min
[8] = human liver microsomes, Without Cofactors, 0 min
[9] = human liver microsomes, Without Cofactors, 30 min
[10] = human liver microsomes, Without Cofactors, 60 min
[11] = Rat liver microsomes, 0.5 mg/mL microsomes, 1 mM NADPH
[12] = Rat liver microsomes, 0.5 mg/mL microsomes, 1 mM NADPH, 37° C
[13] = rat liver microsomes, 0.5 mg/mL
[14] = rat liver microsomes, With Cofactors, 0 min
[15] = rat liver microsomes, With Cofactors, 30 min
[16] = rat liver microsomes, With Cofactors, 60 min
[17] = rat liver microsomes, Without Cofactors, 0 min
[18] = rat liver microsomes, Without Cofactors, 30 min
[19] = rat liver microsomes, Without Cofactors, 60 min
[20] = mouse liver microsomes, 2 μM compound, 0.5 mg/mL
[21] = mouse liver microsomes, With Cofactors, 0 min
[22] = mouse liver microsomes, With Cofactors, 30 min
[23] = mouse liver microsomes, With Cofactors, 60 min
[24] = mouse liver microsomes, Without Cofactors, 0 min
[25] = mouse liver microsomes, Without Cofactors, 30 min
[26] = mouse liver microsomes, Without Cofactors, 60 min
[27] = pooled liver microsomes, rat liver microsomes, 0.5 mg/mL

In the case of `COc1ccc2[nH]cc(CCN(C)C)c2c1` [Compound 5-MeO-DMT], the “Predicted hepatic CL” value ([1]; Human liver microsomes) is reported as 18.09 mL/min/kg, the “Scaled-up CLint” value ([1]; Human liver microsomes) is reported as 143.22 mL/min/kg and the “CLint (μL/min/mg protein)” value ([1]; Human liver microsomes, 0.5 mg/mL microsomes, 1 mM NADPH) is reported as 114.19 μL/min/mg protein. For the same compound, the “t1/2” value ([1]; Human liver microsomes, 0.5 mg/mL microsomes, 1 mM NADPH, 37° C) was 12.14 min, the “Predicted hepatic CL” value ([1]; human liver microsomes) was 18.09 mL/min/kg and the “Scaled-up CLint” value ([1]; human liver microsomes) was 143.22 mL/min/kg. For the same compound, the “CLint (μL/min/mg protein)” value [1, 4] was 114.19 μL/min/mg protein, the “t1/2” value [1, 4] was 12.14 min and the “Remaining Percentage (%)” value [1, 5] was 100.00%. The “Remaining Percentage (%)” value [1, 6] was 19.24%, the “Remaining Percentage (%)” value [1, 7] was 3.25% and the “Remaining Percentage (%)” value [1, 8] was 100.00%. For the same compound, the “Remaining Percentage (%)” value [1, 9] was 18.58%, the “Remaining Percentage (%)” value [1, 10] was 3.00% and the “Predicted hepatic CL” value ([2]; Rat liver microsomes) was 49.02 mL/min/kg. The “Scaled-up CLint” value ([2]; Rat liver microsomes) was 437.56 mL/min/kg, the “CLint (μL/min/mg protein)” value [2, 11] was 244.17 μL/min/mg protein and the “t1/2” value [2, 12] was 5.68 min. The “Predicted hepatic CL” value ([2]; rat liver microsomes) was 49.02 mL/min/kg, the “Scaled-up CLint” value ([2]; rat liver microsomes) was 437.56 mL/min/kg and the “CLint (μL/min/mg protein)” value [2, 13] was 244.17 μL/min/mg protein. The “t1/2” value [2, 13] was 5.68 min, the “Remaining Percentage (%)” value [2, 14] was 100.00% and the “Remaining Percentage (%)” value [2, 15] was 2.57%. The “Remaining Percentage (%)” value [2, 16] was 0.36%, the “Remaining Percentage (%)” value [2, 17] was 100.00% and the “Remaining Percentage (%)” value [2, 18] was 49.55%. For the same compound, the “Remaining Percentage (%)” value [2, 19] was 23.82%, the “Predicted hepatic CL” value ([3]; Mouse liver microsomes) was 54.19 mL/min/kg and the “Scaled-up CLint” value ([3]; Mouse liver microsomes) was 136.21 mL/min/kg. For the same compound, the “CLint (μL/min/mg protein)” value ([3]; Mouse liver microsomes, 2 μM compound, 0.5 mg/mL microsomes, 1 mM NADPH) was 31.13 μL/min/mg protein, the “t1/2” value ([3]; Mouse liver microsomes, 2 μM compound, 0.5 mg/mL microsomes, 1 mM NADPH, 37° C) was 44.52 min and the “Predicted hepatic CL” value ([3]; mouse liver microsomes) was 54.19 mL/min/kg. The “Scaled-up CLint” value ([3]; mouse liver microsomes) was 136.21 mL/min/kg, the “CLint (μL/min/mg protein)” value [3, 20] was 31.13 μL/min/mg protein and the “t1/2” value [3, 20] was 44.52 min. For the same compound, the “Remaining Percentage (%)” value [3, 21] was 100.00%, the “Remaining Percentage (%)” value [3, 22] was 61.84% and the “Remaining Percentage (%)” value [3, 23] was 39.30%. The “Remaining Percentage (%)” value [3, 24] was 100.00%, the “Remaining Percentage (%)” value [3, 25] was 104.76% and the “Remaining Percentage (%)” value [3, 26] was 95.24%.
With `O=C(O)Cc1ccccc1Nc1c(Cl)cccc1Cl` [Diclofenac] the “Predicted hepatic CL” value ([1]; Human liver microsomes) was 18.38 mL/min/kg and 18.35 mL/min/kg, the “Predicted hepatic CL” value ([1]; human liver microsomes) was 18.44 mL/min/kg and 18.35 mL/min/kg and the “Remaining Percentage (%)” value [1, 5] was 100.00%. For the same compound, the “Remaining Percentage (%)” value [1, 6] was 5.01%, the “Remaining Percentage (%)” value [1, 7] was 1.77% and the “Remaining Percentage (%)” value [1, 8] was 100.00%. For the same compound, the “Remaining Percentage (%)” value [1, 9] was 112.67%, the “Remaining Percentage (%)” value [1, 10] was 96.67% and the “Predicted hepatic CL” value ([2]; Rat liver microsomes) was 41.22 mL/min/kg and 41.25 mL/min/kg. The “CLint (μL/min/mg protein)” value [2, 11] was 91.05 μL/min/mg protein, the “t1/2” value [2, 12] was 15.22 min and the half-life at 2 μM ([2]; liver microsomes, Rat liver microsomes, 0.5 mg/mL microsomes, 1 mM NADPH, 37° C) was 15.3 min. The microsomal CLint at 2 μM ([2]; liver microsomes, Rat liver microsomes, 0.5 mg/mL microsomes, 1 mM NADPH) was 90.8 µL/min/mg, the half-life at 2 μM [2, 27] was 15.1 min and the microsomal CLint at 2 μM [2, 27] was 91.9 µL/min/mg. For the same compound, the “Predicted hepatic CL” value ([2]; rat liver microsomes) was 41.34 mL/min/kg and 41.25 mL/min/kg, the “CLint (μL/min/mg protein)” value [2, 13] was 91.05 μL/min/mg protein and the “t1/2” value [2, 13] was 15.22 min. For the same compound, the “Remaining Percentage (%)” value [2, 14] was 100.00%, the “Remaining Percentage (%)” value [2, 15] was 11.86% and the “Remaining Percentage (%)” value [2, 16] was 6.35%. For the same compound, the “Remaining Percentage (%)” value [2, 17] was 100.00%, the “Remaining Percentage (%)” value [2, 18] was 102.19% and the “Remaining Percentage (%)” value [2, 19] was 100.63%. For the same compound, the “Predicted hepatic CL” value ([3]; Mouse liver microsomes) was 54.78 mL/min/kg and 56.11 mL/min/kg, the microsomal CLint at 2 μM ([3]; male, liver microsomes, Mouse liver microsomes, 2 μM compound, 0.5 mg/mL microsomes, 1 mM NADPH) was 32 µL/min/mg and the microsomal CLint at 2 μM ([3]; male, pooled liver microsomes, mouse liver microsomes, 2 μM compound, 0.5 mg/mL) was 32 µL/min/mg. For the same compound, the half-life at 2 μM ([3]; male, Mouse liver microsomes, 2 μM compound, 0.5 mg/mL microsomes, 1 mM NADPH, 37° C) was 40.7 min, the “Predicted hepatic CL” value ([3]; mouse liver microsomes) was 54.78 mL/min/kg and 57.42 mL/min/kg and the “Scaled-up CLint” value ([3]; mouse liver microsomes) was 158.60 mL/min/kg. The “CLint (μL/min/mg protein)” value [3, 20] was 36.25 μL/min/mg protein, the “t1/2” value [3, 20] was 38.23 min and the “Remaining Percentage (%)” value [3, 21] was 100.00%. For the same compound, the “Remaining Percentage (%)” value [3, 22] was 45.55%, the “Remaining Percentage (%)” value [3, 23] was 33.71% and the “Remaining Percentage (%)” value [3, 24] was 100.00%. The “Remaining Percentage (%)” value [3, 25] was 89.49% and the “Remaining Percentage (%)” value [3, 26] was 96.59%.
